{"source": "patent US20030064989A1", "about": "“Inhibitors of cell proliferation, angiogenesis, fertility, and muscle contraction” (priority 2001, published 2003)", "key": {"[1]": {"tested_on": "chick chorioallantoic membrane (CAM)", "test": "Chick chorioallantoic membrane (CAM) assay, CAM area", "experimental": "The chick chorioallantoic membrane (CAM) assay is perhaps the most widely used assay for screening anti-angiogenic or growth inhibitory compounds (see, e.g. Ribatti et al., Int. J. Dev. Biol. 40:1189-1197 (1996)). Cell proliferation and angiogenesis were evaluated by measuring CAM area and BrdU labeling using the CAM assay as modified by Melkonian et al., J. Exp. Zool. (2001), in review. Fertilized chicken eggs were purchased from Hy-Line International (Lakeview, CA), then incubated at 37° C. at 85-90% relative humidity throughout the experiment. Experiments were done to evaluate cell proliferation, angiogenesis, and vascularization in CAMs between days 5 and 6 after fertilization. Albumin (2.5-3.0 cc) was removed on the fourth day after fertilization to drop the embryo away from the shell. Windows were then made in shells, and sealed with transparent tape to allow subsequent access to the CAM for experimental treatment. 200 μl of either EBSS-H or different concentrations of pure chemicals were added to the surface of each CAM at 10 AM on the fifth day after fertilization. A sham control group in which the window was opened and resealed was also included in each experiment. In all cases, the following five concentrations of test reagents were used, 5×10^−3 M, 5×10^−5 M, 5×10^−7M, 5×10^−9 M and 5×10^−11M. For 2-ethylpyridine and 3-ethylpyridine additional concentrations of 5×10^−12M, 5×10^−13M, 5×10^−14 M and 5×10^−15 M were used. For nicotine and nornicotine, concentrations of 5×10^−4 M, 5×10^−6 M, 5×10^−8 M and 5×10^−10 M were also used. Development was terminated at 10 AM on the sixth day after fertilization by fixing the embryo and the CAM with 3% glutaraldehyde in 0.1M cacodylate buffer (pH 7.4) for 2 hours at room temperature. A small volume of fixative was also injected under the CAM. The CAMs were later dissected from eggs, post-fixed in the same fixative for 24 hours at room temperature, then thoroughly rinsed in PBS.\nAt least 6 CAMs were used in each control and experimental group. Parameters which measure aspects of cell proliferation, angiogenesis, and vacularization were quantified for each CAM. These parameters include: (1) for cell proliferation—CAM area, BrdU labeling of nuclei; (2) for angiogenesis—blood vessel pattern, blood vessel area, blood vessel diameter, and blood vessel branching; (3) for vascularization—density of angiogenic clusters. The area of each CAM was measured by placing the CAMs in PBS in a Petri dish under a Wild-M5A dissecting microscope (Max ERB instrument Co., Burbank, CA), then measuring the longest and shortest length of each CAM with a ruler to the precision of 0.5 mm. The data were recorded into Excel spreadsheet. CAM area was calculated using the formula:\nwhere A=longest length, B=longest width, π=3.14.\nMeans and standard deviations were then calculated for each control and treatment group. The treated group means were used to compare with control means to determine the effect of each chemical on CAM growth.\nOn the fifth day after fertilization, either EBSS-H or different concentrations of test chemicals were added to each CAM. A sham group in which windows were opened and resealed without adding any solution was also included to determine if the vehicle EBSS-H had any effect on CAM area. Development was terminated 24 hours later, and CAMs were measured as described in Materials and Methods."}, "[2]": {"tested_on": "hamster oviduct explants (infundibulum)", "test": "Oocyte pickup rate (OPR) assay", "assay_type": "cell-based, golden hamsters (Mesocricetus auratus)", "experimental": "Hamsters were injected with 25 I.U. of human chorionic gonadotropin (hCG) on the evening of Day 4 of their estrous cycle. On the day of the experiment, approximately 12 hours after the injection of hCG, hamsters were sacrificed using CO2, and oviducts and ovaries were removed. During dissection the oviduct and ovary were separated. Ovaries were isolated in EBSS-HA and expanded follicles were poked with a dissecting needle to release the oocyte cumulus complexes (OCCs). Oocyte cumulus complexes were transferred to a fresh Petri dish and placed in EBSS-HA. The infundibulum was cut from the oviduct leaving part of the ampulla attached to function as a handle. […]\nOocyte cumulus complex pick-up rate was measured using hamster oviduct explants in an in vitro assay (Huang et al., 1997, supra; Knoll et al., 1998, supra; Talbot et al., 1998, supra). […] An oocyte cumulus complex was placed at the base of the infundibulum and the length of time needed for the complex to traverse a defined path to the ostium was recorded. […] Then the test smoke solution or chemical was added to the perfusion chamber and allowed to incubate for five minutes after which pickup-rate was measured again. […] Oocyte pickup-rate was measured again and this rate was recorded as the “recovery” measurement. […]"}, "[3]": {"tested_on": "hamster oviduct explants (infundibulum)", "test": "Ciliary beat frequency assay", "assay_type": "cell-based, golden hamsters (Mesocricetus auratus)", "experimental": "Ciliary beat frequency was measured using hamster oviduct explants in an in vitro assay (Knoll et al., 1998, supra; Talbot et al., 1998, supra). Perfusion chambers containing infundibula were placed on a Wild stereoscopic microscope (model BD-HF) and viewed at 50×. A video image was sent from the microscope to a Dell computer using a Hitachi camera and recorded using a VCR onto a Super VHS videotape. To measure cilia beat frequency the videotape was played back frame-by-frame. The VCR recorded 15 frames per second. Each frame represented a fraction of a cycle; the completion of a cycle was equivalent to one beat. Number of frames per cycle (or frames per beat) were measured and then converted into beats per second. Ten measurements were made for each infundibulum for each treatment group. Recordings were made for 40-60 seconds per region, which ensured an adequate amount of data for analysis.\nFor the ciliary beat frequency, oocyte pickup rate, and infundibular muscle contraction graphs, purified 3-ethylpyridine was purchased and dissolved in EBSS. A hamster infundibulum was exposed to a dose range of 9.33 e-7 to 9.33 e-4 mM (four dose groups total) for five minutes and oocyte pickup rate, ciliary beat frequency, and infundibular contraction were measured. […]"}, "hamster infundibula": {"tested_on": "hamster infundibula", "test": "Infundibular muscle contraction assay", "assay_type": "cell-based, golden hamsters (Mesocricetus auratus)", "description": "The infundibular muscle contraction assay was developed after observing consistent infundibular contractions that slowed or ceased after treatment with mainstream smoke solutions. Perfusion chambers containing infundibula were placed on a Wild stereoscopic microscope (model BD-HF) and viewed at 50×. A video image was sent from the microscope to a Dell computer using a Hitachi camera and the infundibular contractions could be observed and measured on the computer monitor. As the infundibulum contracted, the image shown on the monitor moved a measurable distance. This distance was measured during each contraction by placing a ruler against the computer monitor. These values (in centimeters) were then converted to actual distance by capturing an image of a ruler under the microscope and converting the measured values to micrometers. Frequency was also measured by observing the contracting infundibula on the computer monitor. The number of times the infundibulum contracted per minute was recorded. Each parameter was measured four to six times per infundibulum per treatment group.\nFor the ciliary beat frequency, oocyte pickup rate, and infundibular muscle contraction graphs, purified 3-ethylpyridine was purchased and dissolved in EBSS. […]"}, "[4]": {"conditions": "CAM area, day 5-6 CAMs, 24 hours"}, "[5]": {"conditions": "five minutes, single infundibulum"}}, "note": "Where “and” joins values, the source holds several entries; their conditions need not be identical. Equal entries are not always repeated."}
{"smiles": "CCc1cccnc1", "note": "[3-ethylpyridine]", "values": [{"measurement": "lowest effective dose lower than that of the single pyridine ring", "setting": "[1]; CAM area", "value": 10, "unit": "million"}, {"measurement": "LOAEL", "setting": "[1]; [4]", "value": "5.36e-10", "unit": "mg/mL"}, {"measurement": "LOAEL (Molar)", "setting": "[1]; [4]", "value": 5, "unit": "pM"}, {"measurement": "NOAEL (Molar)", "setting": "[1]; [4]", "value": 0.5, "unit": "pM"}, {"measurement": "minimal effective concentration", "setting": "[1]; Gallus gallus, 24 h, read-out: lowest effective dose on CAM area", "value": "5e-06 µM and 5.4e-07 µg/mL"}, {"measurement": "concentration at which oocyte pickup rate was significantly inhibited", "setting": "[2]; [5]", "value": "9.33 e-7 mM"}, {"measurement": "reversibility of effect on OPR after the recovery period", "setting": "[2]; recovery period", "value": "partially reversible"}, {"measurement": "concentration at which ciliary beat frequency was significantly inhibited", "setting": "[3]; [5]", "value": "9.33 e-7 mM"}, {"measurement": "CBF during the recovery period", "setting": "[3]; recovery period", "value": "continued to decrease"}, {"measurement": "concentration at which infundibular muscle contraction rate was significantly inhibited", "setting": "hamster infundibula; [5]", "value": "9.33 e-7 mM"}, {"measurement": "reversibility of effect on contraction rate after the recovery period", "setting": "hamster infundibula; recovery period", "value": "partially reversible"}]}
